From article PMC10175095 (Therapeutic drug monitoring, 2023)

Experiments:
[1] = Reinjection stability in final extract; type: physicochemical; settings: reinjected, 4°C, autosampler, 25.95 h
[2] = Pre-processed stability in human plasma; type: in vitro ADME; settings: 2.5 h
[3] = Long-term stability of unprocessed plasma samples at −80°C; type: in vitro ADME; settings: human plasma
[4] = Freeze-thaw stability of unprocessed plasma samples; type: in vitro ADME; settings: human plasma, 3 freeze (-80°C)-thaw cycles
CDK4/6 = settings: compared with abemaciclib; cited from earlier work
[5] = Processed sample stability in final extract; type: physicochemical; settings: 4°C, autosampler, 25.1 h
[6] = major systemic metabolite; cited from earlier work
[7] = RT (20–25°C), yellow light, nominal 15 ng/mL
[8] = RT (20–25°C), yellow light, nominal 1500 ng/mL

In the case of `Cc1nc2c(F)cc(-c3nc(Nc4ccc(CN5CCNCC5)cn4)ncc3F)cc2n1C(C)C` [Abemaciclib-M2], the “Accuracy vs fresh QCs” value ([1]; nominal 15 ng/mL) is reported as 103%, the “Accuracy vs. nominal concentration” value ([1]; nominal 15 ng/mL) is reported as 113% and the Mean measured concentration ([1]; nominal 15 ng/mL) is reported as 16.9 ng/mL. For the same compound, the “Accuracy vs fresh QCs” value ([1]; nominal 150 ng/mL) was 96.5%, the “Accuracy vs. nominal concentration” value ([1]; nominal 150 ng/mL) was 104% and the Mean measured concentration ([1]; nominal 150 ng/mL) was 155 ng/mL. The “Accuracy vs fresh QCs” value ([1]; nominal 1500 ng/mL) was 103%, the “Accuracy vs. nominal concentration” value ([1]; nominal 1500 ng/mL) was 104% and the Mean measured concentration ([1]; nominal 1500 ng/mL) was 1557 ng/mL. For the same compound, the “Accuracy vs fresh QCs” value ([2]; 37°C, dark, nominal 15 ng/mL) was 95.8%, the “Accuracy vs. nominal concentration” value ([2]; 37°C, dark, nominal 15 ng/mL) was 101% and the Mean measured concentration ([2]; 37°C, dark, nominal 15 ng/mL) was 15.1 ng/mL. For the same compound, the “Accuracy vs fresh QCs” value ([2]; 37°C, dark, nominal 1500 ng/mL) was 103%, the “Accuracy vs. nominal concentration” value ([2]; 37°C, dark, nominal 1500 ng/mL) was 103% and the Mean measured concentration ([2]; 37°C, dark, nominal 1500 ng/mL) was 1540 ng/mL. The “Accuracy vs fresh QCs” value [2, 7] was 96.6%, the “Accuracy vs. nominal concentration” value [2, 7] was 102% and the Mean measured concentration [2, 7] was 15.3 ng/mL. The “Accuracy vs fresh QCs” value [2, 8] was 104%, the “Accuracy vs. nominal concentration” value [2, 8] was 104% and the Mean measured concentration [2, 8] was 1557 ng/mL. The “Accuracy vs fresh QCs” value ([3]; 3 months, nominal 15 ng/mL) was 107%, the “Accuracy vs. nominal concentration” value ([3]; 3 months, nominal 15 ng/mL) was 97.6% and the Mean measured concentration ([3]; 3 months, nominal 15 ng/mL) was 14.6 ng/mL. For the same compound, the “Accuracy vs fresh QCs” value ([3]; 3 months, nominal 150 ng/mL) was 104%, the “Accuracy vs. nominal concentration” value ([3]; 3 months, nominal 150 ng/mL) was 100% and the Mean measured concentration ([3]; 3 months, nominal 150 ng/mL) was 150 ng/mL. For the same compound, the “Accuracy vs fresh QCs” value ([3]; 3 months, nominal 1500 ng/mL) was 98.7%, the “Accuracy vs. nominal concentration” value ([3]; 3 months, nominal 1500 ng/mL) was 100% and the Mean measured concentration ([3]; 3 months, nominal 1500 ng/mL) was 1503 ng/mL. For the same compound, the “Accuracy vs fresh QCs” value ([3]; 7 months, nominal 15 ng/mL) was 102%, the “Accuracy vs. nominal concentration” value ([3]; 7 months, nominal 15 ng/mL) was 96.9% and the Mean measured concentration ([3]; 7 months, nominal 15 ng/mL) was 14.5 ng/mL. The “Accuracy vs fresh QCs” value ([3]; 7 months, nominal 150 ng/mL) was 92.4%, the “Accuracy vs. nominal concentration” value ([3]; 7 months, nominal 150 ng/mL) was 102% and the Mean measured concentration ([3]; 7 months, nominal 150 ng/mL) was 154 ng/mL. The “Accuracy vs fresh QCs” value ([3]; 7 months, nominal 1500 ng/mL) was 93.8%, the “Accuracy vs. nominal concentration” value ([3]; 7 months, nominal 1500 ng/mL) was 93.6% and the Mean measured concentration ([3]; 7 months, nominal 1500 ng/mL) was 1403 ng/mL. The “Accuracy vs fresh QCs” value ([3]; 12 months, nominal 15 ng/mL) was 111%, the “Accuracy vs. nominal concentration” value ([3]; 12 months, nominal 15 ng/mL) was 101% and the Mean measured concentration ([3]; 12 months, nominal 15 ng/mL) was 15.1 ng/mL. The “Accuracy vs fresh QCs” value ([3]; 12 months, nominal 150 ng/mL) was 95.6%, the “Accuracy vs. nominal concentration” value ([3]; 12 months, nominal 150 ng/mL) was 110% and the Mean measured concentration ([3]; 12 months, nominal 150 ng/mL) was 166 ng/mL. For the same compound, the “Accuracy vs fresh QCs” value ([3]; 12 months, nominal 1500 ng/mL) was 96.8%, the “Accuracy vs. nominal concentration” value ([3]; 12 months, nominal 1500 ng/mL) was 104% and the Mean measured concentration ([3]; 12 months, nominal 1500 ng/mL) was 1567 ng/mL. The “Accuracy vs fresh QCs” value ([4]; nominal 15 ng/mL) was 98.2%, the “Accuracy vs. nominal concentration” value ([4]; nominal 15 ng/mL) was 100% and the Mean measured concentration ([4]; nominal 15 ng/mL) was 15.0 ng/mL. For the same compound, the “Accuracy vs fresh QCs” value ([4]; nominal 1500 ng/mL) was 98.2%, the “Accuracy vs. nominal concentration” value ([4]; nominal 1500 ng/mL) was 99.6% and the Mean measured concentration ([4]; nominal 1500 ng/mL) was 1493 ng/mL. For the same compound, the “Pharmacological potency vs parent drug” value (CDK4/6) was “equipotent”, the “Accuracy vs fresh QCs” value ([5]; nominal 15 ng/mL) was 100% and the “Accuracy vs. nominal concentration” value ([5]; nominal 15 ng/mL) was 110%. The Mean measured concentration ([5]; nominal 15 ng/mL) was 16.5 ng/mL, the “Accuracy vs fresh QCs” value ([5]; nominal 1500 ng/mL) was 102% and the “Accuracy vs. nominal concentration” value ([5]; nominal 1500 ng/mL) was 102%. The Mean measured concentration ([5]; nominal 1500 ng/mL) was 1537 ng/mL and the “Share of the total circulating analytes in plasma” value [6] was 25%.
